According to patent US20110046107A1, “SULFONYL-SUBSTITUTED CARBAPENEM COMPOUNDS” (priority 2007, published 2011):
≈ marks a conversion by molar mass, not a printed value. Where two headings read alike, the source gives them in different places.

Columns and labels:
Test in all cases: In vitro antibacterial activity, agar dilution method (clinical isolates)
Assay type in all cases: cell-based
Citrobacter freundii = details: clinically isolated strains, Gram-negative
Text: (§1) Bacterial strains for test: All the bacterial strains are clinical isolates and purchased from public organizations. methicillin-sensitive staphylococcus aureus (MS SA), methicillin-resistant staphylococcus aureus (MRSA), methicillin-sensitive staphylococcus epidermidis (MSSE), methicillin-resistant staphylococcus epidermidis (MRSE), streptococcus pyogenes, penicillin-sensitive streptococcus pneumoniae (PSSP), penicillin-resistant streptococcus pneumoniae (PRSP), Escherichia coli, Citrobacter freundii, Enterobacter cloacae, Hemophilus influenza, Klebsiella pneumonia (producing ESBL), Morganella morganii, Proteus mirabilis, Serratia marcescens, and Pseudomonas aeruginosa.
(§2) Drugs to be tested: compounds of the invention prepared in the examples; the chemical names, structural formulae, preparation materials, and preparation methods are provided in the preparation examples of the compounds;
(§3) Meropenem (Meropenem for injection), Ertapenem (Ertapenem for injection), and Doripenem (Doripenem for injection) commercially available
(§4) Experimental method: the agar dilution method, by reference to Methodology of Pharmacological Experiment (XU Shuyun et al, published by the Peoples Medical Publishing House, 1st Edition, August, 1982; 3rd Edition, 5th printing, January 2002, p 1659-1660).

Enterobacter cloacae = details: read-out: MIC90 Enterobacter cloacae
Text: as §1, §2, §3, §4

Escherichia coli = details: clinically isolated strains, Gram-negative, read-out: MIC90 E. coli
Text: as §1, §2, §3, §4

Hemophilus influenza = details: read-out: MIC90 Hemophilus influenza
Text: as §1, §2, §3, §4

[1] = system: Klebsiella pneumonia (producing ESBL); details: Klebsiella pneumoniae, read-out: MIC90 Klebsiella pneumonia
Text: as §1, §2, §3, §4

Morganella morganii = details: clinically isolated strains, Gram-negative
Text: as §1, §2, §3, §4

Proteus mirabilis = details: read-out: MIC90 Proteus mirabilis
Text: as §1, §2, §3, §4

Pseudomonas aeruginosa = details: clinically isolated strains, Gram-negative
Text: as §1, §2, §3, §4

Serratia marcescens = details: read-out: MIC90 Serratia marcescens
Text: as §1, §2, §3, §4

[2] = system: methicillin-resistant staphylococcus aureus (MRSA); details: clinically isolated strains, Gram-positive, read-out: MIC90 S. aureus MRSA
Text: as §1, §2, §3, §4

[3] = system: methicillin-resistant staphylococcus epidermidis (MRSE); details: clinically isolated strains, Gram-positive, read-out: MIC90 S. epidermidis MRSE
Text: as §1, §2, §3, §4

[4] = system: methicillin-sensitive staphylococcus aureus (MSSA); details: read-out: MIC90 S. aureus MSSA
Text: as §1, §2, §3, §4

[5] = system: methicillin-sensitive staphylococcus epidermidis (MSSE); details: read-out: MIC90 S. epidermidis MSSE
Text: as §1, §2, §3, §4

[6] = system: penicillin-resistant streptococcus pneumoniae (PRSP); details: clinically isolated strains, Gram-positive, read-out: MIC90 S. pneumoniae PRSP
Text: as §1, §2, §3, §4

[7] = system: penicillin-sensitive streptococcus pneumoniae (PSSP); details: clinically isolated strains, Gram-positive, read-out: MIC90 S. pneumoniae PSSP
Text: as §1, §2, §3, §4

streptococcus pyogenes = details: clinically isolated strains, Gram-positive, read-out: MIC90 S. pyogenes
Text: as §1, §2, §3, §4

[8] = clinically isolated strains, Gram-negative, agar dilution
[9] = clinically isolated strains (producing ESBL), Gram-negative, agar dilution
[10] = clinically isolated strains, Gram-positive, agar dilution

| SMILES | MIC90 (Citrobacter freundii) | MIC90 (Enterobacter cloacae) | MIC90 (Escherichia coli) | MIC90 (Hemophilus influenza; [8]) | MIC90 [1, 9] | MIC90 (Morganella morganii) | MIC90 (Proteus mirabilis; [8]) | MIC90 (Pseudomonas aeruginosa) | MIC90 (Serratia marcescens; [8]) | MIC90 [2] | MIC90 [3] | MIC90 [4, 10] | MIC90 [5, 10] | MIC90 [6] | MIC90 [7] | MIC90 (streptococcus pyogenes) | MIC90 (Serratia marcescens) | MIC90 (Enterobacter cloacae; [8]) | further results |
| --- | --- | --- | --- | --- | --- | --- | --- | --- | --- | --- | --- | --- | --- | --- | --- | --- | --- | --- | --- |
| C[C@@H](O)[C@H]1C(=O)N2C(C(=O)O)=C(SC3CN(S(=O)(=O)NCC(N)=O)C3)[C@H](C)[C@H]12 [Compound 10] | 0.032 µg/mL (≈ 0.0736 µM) | 0.125 µg/mL (≈ 0.288 µM) | 0.008 µg/mL (≈ 0.0184 µM) | 0.125 µg/mL (≈ 0.288 µM) | 0.063 µg/mL (≈ 0.145 µM) | 0.016 µg/mL (≈ 0.0368 µM) | 0.063 µg/mL (≈ 0.145 µM) | 8 µg/mL (≈ 18.4 µM) | 0.063 µg/mL (≈ 0.145 µM) | 8 µg/mL (≈ 18.4 µM) | 16 µg/mL (≈ 36.8 µM) | 0.063 µg/mL (≈ 0.145 µM) | 0.063 µg/mL (≈ 0.145 µM) | 5 µg/mL (≈ 11.5 µM) | 0.008 µg/mL (≈ 0.0184 µM) | 0.008 µg/mL (≈ 0.0184 µM) | – | – | – |
| C[C@@H](O)[C@H]1C(=O)N2C(C(=O)O)=C(S[C@H]3CCN(S(N)(=O)=O)C3)[C@H](C)[C@H]12 [Compound 2, (4R,5S,6S)-3-[(3S)-N-aminosulfonyl-pyrrolidin-3-yl]thio-6-[(1R)-1-hydroxyethyl]-4-methyl-7-oxo-1-aza-bicyclo-[3.2.0]hept-2-ene-2-carboxylic acid] | 0.032 µg/mL (≈ 0.0817 µM) | 0.125 µg/mL (≈ 0.319 µM) | 0.016 µg/mL (≈ 0.0409 µM) | – | – | 0.063 µg/mL (≈ 0.161 µM) | 0.63 µg/mL (≈ 1.61 µM) | 8 µg/mL (≈ 20.4 µM) | – | 16 µg/mL (≈ 40.9 µM) | 8 µg/mL (≈ 20.4 µM) | 0.063 µg/mL (≈ 0.161 µM) | 0.063 µg/mL (≈ 0.161 µM) | 0.5 µg/mL (≈ 1.28 µM) | 0.016 µg/mL (≈ 0.0409 µM) | 0.008 µg/mL (≈ 0.0204 µM) | 0.125 µg/mL (≈ 0.319 µM) | – | MIC90 (Hemophilus influenza): 0.125 µg/mL (≈ 0.319 µM); MIC90 [1]: 0.125 µg/mL (≈ 0.319 µM) |
| C[C@@H](O)[C@H]1C(=O)N2C(C(=O)O)=C(SC3CCCN(S(N)(=O)=O)C3)[C@H](C)[C@H]12 (stereo partly drawn) [Compound 3, (4R,5S,6S)-3-[N-aminosulfonyl-piperidin-3-yl]thio-6-[(1R)-1-hydroxyethyl]-4-methyl-7-oxo-1-aza-bicyclo-[3.2.0]hept-2-ene-2-carboxylic acid] | 0.063 µg/mL (≈ 0.155 µM) | – | 0.032 µg/mL (≈ 0.0789 µM) | 0.25 µg/mL (≈ 0.617 µM) | 0.063 µg/mL (≈ 0.155 µM) | 0.032 µg/mL (≈ 0.0789 µM) | 0.125 µg/mL (≈ 0.308 µM) | 16 µg/mL (≈ 39.5 µM) | 0.125 µg/mL (≈ 0.308 µM) | 16 µg/mL (≈ 39.5 µM) | 8 µg/mL (≈ 19.7 µM) | 0.125 µg/mL (≈ 0.308 µM) | 0.125 µg/mL (≈ 0.308 µM) | 0.5 µg/mL (≈ 1.23 µM) | 0.016 µg/mL (≈ 0.0395 µM) | 0.008 µg/mL (≈ 0.0197 µM) | – | 0.125 µg/mL (≈ 0.308 µM) | – |
| C[C@@H](O)[C@H]1C(=O)N2C(C(=O)O)=C(S[C@@H]3CN[C@H](C(=O)Nc4cccc(C(=O)O)c4)C3)[C@H](C)[C@H]12 [ertapenem, Ertapenem, reference compound] | 0.25 µg/mL (≈ 0.526 µM) | – | 0.25 µg/mL (≈ 0.526 µM) | 1 µg/mL (≈ 2.1 µM) | 1 µg/mL (≈ 2.1 µM) | 0.25 µg/mL (≈ 0.526 µM) | 1 µg/mL (≈ 2.1 µM) | 32 µg/mL (≈ 67.3 µM) | 0.5 µg/mL (≈ 1.05 µM) | > 64 µg/mL | 64 µg/mL (≈ 135 µM) | 0.5 µg/mL (≈ 1.05 µM) | 0.5 µg/mL (≈ 1.05 µM) | 2 µg/mL (≈ 4.21 µM) | 0.063 µg/mL (≈ 0.132 µM) | 0.032 µg/mL (≈ 0.0673 µM) | – | 2 µg/mL (≈ 4.21 µM) | – |
| C[C@@H](O)[C@H]1C(=O)N2C(C(=O)O)=C(SC3CN=CN(S(N)(=O)=O)C3)[C@H](C)[C@H]12 (stereo partly drawn) [Compound 4, (4R,5S,6S)-3-[1(4H)-aminosulfonyl-5,6-dihydropyrimidin-5-yl]-thio-6-[(1R)-1-hydroxyethyl]-4-methyl-7-oxo-1-aza-bicyclo-[3.2.0]hept-2-ene-2-carboxylic acid] | 0.032 µg/mL (≈ 0.0791 µM) | 0.125 µg/mL (≈ 0.309 µM) | 0.032 µg/mL (≈ 0.0791 µM) | 0.125 µg/mL (≈ 0.309 µM) | 0.063 µg/mL (≈ 0.156 µM) | 0.063 µg/mL (≈ 0.156 µM) | – | 32 µg/mL (≈ 79.1 µM) | – | 8 µg/mL (≈ 19.8 µM) | 16 µg/mL (≈ 39.6 µM) | – | 0.063 µg/mL (≈ 0.156 µM) | 1 µg/mL (≈ 2.47 µM) | 0.016 µg/mL (≈ 0.0396 µM) | 0.016 µg/mL (≈ 0.0396 µM) | 0.125 µg/mL (≈ 0.309 µM) | – | MIC90 (Proteus mirabilis): 0.125 µg/mL (≈ 0.309 µM); MIC90 [4]: 0.125 µg/mL (≈ 0.309 µM) |
| CCN(CC)S(=O)(=O)N1CC(SC2=C(C(=O)O)N3C(=O)[C@H]([C@@H](C)O)[C@H]3[C@H]2C)C1 [Compound 7, (4R,5S,6S)-3-[1-(N,N-diethylaminosulfonyl)-azetidin-3-yl]thio-6-[(1R)-1-hydroxyethyl]-4-methyl-7-oxo-1-aza-bicyclo-[3.2.0]hept-2-ene-2-carboxylic acid] | 0.016 µg/mL (≈ 0.0369 µM) | 0.125 µg/mL (≈ 0.288 µM) | 0.016 µg/mL (≈ 0.0369 µM) | 0.125 µg/mL (≈ 0.288 µM) | 0.063 µg/mL (≈ 0.145 µM) | 0.063 µg/mL (≈ 0.145 µM) | – | 8 µg/mL (≈ 18.5 µM) | 0.063 µg/mL (≈ 0.145 µM) | 8 µg/mL (≈ 18.5 µM) | 8 µg/mL (≈ 18.5 µM) | 0.063 µg/mL (≈ 0.145 µM) | 0.063 µg/mL (≈ 0.145 µM) | 0.5 µg/mL (≈ 1.15 µM) | 0.008 µg/mL (≈ 0.0185 µM) | 0.004 µg/mL (≈ 0.00923 µM) | – | – | MIC90 (Proteus mirabilis): 0.125 µg/mL (≈ 0.288 µM) |
| C[C@@H](O)[C@H]1C(=O)N2C(C(=O)O)=C(SC3CNCN(S(N)(=O)=O)C3)[C@H](C)[C@H]12 (stereo partly drawn) [Compound 5, (4R,5S,6S)-3-[1(2H)-aminosulfonyl-tetrahydropyrimidin-5-yl]-thio-6-[(1R)-1-hydroxyethyl]-4-methyl-7-oxo-1-aza-bicyclo-[3.2.0]hept-2-ene-2-carboxylic acid] | 0.032 µg/mL (≈ 0.0787 µM) | – | 0.032 µg/mL (≈ 0.0787 µM) | 0.125 µg/mL (≈ 0.308 µM) | – | 0.063 µg/mL (≈ 0.155 µM) | 0.063 µg/mL (≈ 0.155 µM) | 16 µg/mL (≈ 39.4 µM) | 0.063 µg/mL (≈ 0.155 µM) | 16 µg/mL (≈ 39.4 µM) | 16 µg/mL (≈ 39.4 µM) | 0.25 µg/mL (≈ 0.615 µM) | – | 1 µg/mL (≈ 2.46 µM) | 0.016 µg/mL (≈ 0.0394 µM) | 0.016 µg/mL (≈ 0.0394 µM) | – | 0.25 µg/mL (≈ 0.615 µM) | MIC90 [1]: 0.125 µg/mL (≈ 0.308 µM); MIC90 [5]: 0.125 µg/mL (≈ 0.308 µM) |
| C[C@@H](O)[C@H]1C(=O)N2C(C(=O)[O-])=C(SC3CN(S(=O)(=O)NCC(O)CN)C3)[C@H](C)[C@H]12.[Na+] (some centres unmarked) [sodium salt of compound 9] | 0.032 µg/mL | – | 0.016 µg/mL | – | 0.063 µg/mL | 0.032 µg/mL | 0.63 µg/mL | 16 µg/mL | – | 16 µg/mL | 8 µg/mL | 0.032 µg/mL | 0.063 µg/mL | 0.5 µg/mL | 0.008 µg/mL | 0.008 µg/mL | 0.125 µg/mL | 0.063 µg/mL | MIC90 (Hemophilus influenza): 0.125 µg/mL |
